Measurements from US4521335A, “Aglycone and pseudo-aglycones of the AAD 216 antibiotics” (SmithKline Beckman Corporation, priority 1984, dated 1985).
In brackets after ≈: the same amount, converted by molar mass.

What was measured:
[1] = tested on: Staph. aureus SK & F 910; assay: MIC, standard microtiter assay; type: cell-based
[2] = tested on: Proteus mirabilis SK & F 444; assay: MIC, standard microtiter assay; type: cell-based
[3] = tested on: E. coli 12140 (SK & F 809); assay: MIC, standard microtiter assay; type: cell-based; conditions: Escherichia coli
[4] = tested on: Pseudomonas aeruginosa HH63; assay: MIC, standard microtiter assay; type: cell-based
[5] = tested on: Serratia marcesens ATCC 13880; assay: MIC, standard microtiter assay; type: cell-based; conditions: ATCC13880
[6] = tested on: Enterobacter cloacae HH31254; assay: MIC, standard microtiter assay; type: cell-based
[7] = tested on: Salmonella gallinarum SK & F BC595; assay: microbe, parasite or virus in culture; type: cell-based; conditions: Salmonella enterica
[8] = tested on: Staph. epidermidis SK & F 651; assay: MIC, standard microtiter assay; type: cell-based; conditions: Staphylococcus epidermidis
[9] = tested on: Staph. aureus SK & F 2666; assay: MIC, standard microtiter assay; type: cell-based; conditions: Staphylococcus aureus
[10] = tested on: Staph. aureus SK & F 2677; assay: MIC, standard microtiter assay; type: cell-based; conditions: Staphylococcus aureus
[11] = tested on: Staph. aureus SK & F 2743; assay: MIC, standard microtiter assay; type: cell-based; conditions: Staphylococcus aureus
[12] = tested on: Staph. aureus SK & F 2613; assay: MIC, standard microtiter assay; type: cell-based; conditions: Staphylococcus aureus
[13] = tested on: Staph. aureus SK & F 675; assay: MIC, standard microtiter assay; type: cell-based; conditions: Staphylococcus aureus
[14] = tested on: Staph. aureus SK & F 2620; assay: MIC, standard microtiter assay; type: cell-based; conditions: Staphylococcus aureus
[15] = tested on: Staph. aureus SK & F 2621; assay: MIC, standard microtiter assay; type: cell-based; conditions: Staphylococcus aureus
[16] = tested on: Staph. aureus SK & F 2593; assay: MIC, standard microtiter assay; type: cell-based; conditions: Staphylococcus aureus
[17] = tested on: Staph. aureus SK & F 2591; assay: MIC, standard microtiter assay; type: cell-based; conditions: Staphylococcus aureus
[18] = tested on: Staph. aureus SK & F 2597; assay: MIC, standard microtiter assay; type: cell-based; conditions: Staphylococcus aureus
[19] = tested on: Bacteroides fragilis ATCC 25285; assay: MIC, standard microtiter assay; type: cell-based; conditions: ATCC25285
[20] = tested on: B. fragilis SK & F 3060; assay: MIC, standard microtiter assay; type: cell-based; conditions: Bacteroides fragilis
[21] = tested on: B. loeochis SK & F 3087; assay: MIC, standard microtiter assay; type: cell-based; conditions: Table D, Anaerobes
Description: The AAD 216 aglycone, the AAD 216 pseudo-aglycone, the AAD 216A pseudo-aglycone, the AAD 216B pseudo-aglycone and the AAD 216C pseudo-aglycone were neutralized with sodium bicarbonate prior to testing.

[22] = tested on: Fusobacterium nucleatum ATCC 25586; assay: MIC, standard microtiter assay; type: cell-based
[23] = tested on: C. difficile SK & F 3065; assay: MIC, standard microtiter assay; type: cell-based; conditions: Clostridioides difficile
[24] = tested on: C. difficile SK & F 3091; assay: MIC, standard microtiter assay; type: cell-based; conditions: Clostridioides difficile
[25] = tested on: C. difficile SK & F 3092; assay: MIC, standard microtiter assay; type: cell-based; conditions: Clostridioides difficile
[26] = tested on: C. difficile SK & F 3098; assay: MIC, standard microtiter assay; type: cell-based; conditions: Clostridioides difficile
[27] = tested on: Strep. faecalis SK & F 34358; assay: MIC, standard microtiter assay; type: cell-based; conditions: Enterococcus faecalis
[28] = tested on: C. perfringens SK & F 2769; assay: microbe, parasite or virus in culture; type: cell-based; conditions: Clostridium perfringens
[29] = tested on: Staph. aureus HH 127; assay: in vivo activity against intraperitoneal infections in mice; design: species or system mice infected with Staph. aureus; conditions: Staphylococcus aureus, HH127, sc
[30] = tested on: inoculum (ileal or cecal cannula filtrate); assay: swine in vitro model, growth promotant activity; conditions: experiment I, 5 hours, 37° C.; for GLU (% Control): glucose; for LAC (% Control): lactic acid; for LYS (% Control): lysine; for VFA (% Control): total volatile fatty acids

Work on `CN[C@H](CC(C)C)C(=O)N[C@H]1C(=O)N[C@@H](CC(N)=O)C(=O)N[C@H]2C(=O)N[C@H]3C(=O)N[C@H](C(=O)N[C@H](C(=O)O)c4cc(O)cc(O)c4-c4cc3ccc4O)[C@H](O)c3ccc(c(Cl)c3)Oc3cc2cc(c3O[C@@H]2O[C@H](CO)[C@@H](O)[C@H](O)[C@H]2O[C@H]2C[C@](C)(N)[C@H](O)[C@H](C)O2)Oc2ccc(cc2Cl)[C@H]1O` [Vancomycin, vancomycin] yielded an MIC ([1]; Staphylococcus aureus) of 1.6 µg/mL (≈ 1.1 µM), an MIC ([1]; Table A, Staph. aureus SK & F 910) of 1.6 µg/mL (≈ 1.1 µM) and an MIC ([1]; Table E, Staph. aureus SK & F 910) of 1.6 µg/mL (≈ 1.1 µM). It also gave an MIC [2] of 100 µg/mL (≈ 69 µM), an MIC [3] of 100 µg/mL (≈ 69 µM) and an MIC [4] greater than 100 µg/mL. For the same compound, the MIC [5] was greater than 100 µg/mL, the MIC [6] was greater than 100 µg/mL and the MIC [7] was 25 µg/mL (≈ 17.3 µM). For the same compound, the MIC ([8]; Table A, Staph. epidermidis SK & F 651) was 1.6 µg/mL (≈ 1.1 µM), the MIC ([8]; Table E, Staph. epidermidis SK & F 651, first entry) was 3.1 µg/mL (≈ 2.14 µM) and the MIC ([8]; Table E, Staph. epidermidis SK & F 651, second entry) was 3.1 µg/mL (≈ 2.14 µM). It also gave an MIC [9] of 1.6 µg/mL (≈ 1.1 µM), an MIC [10] of 1.6 µg/mL (≈ 1.1 µM) and an MIC [11] of 1.6 µg/mL (≈ 1.1 µM). The MIC [12] was 1.6 µg/mL (≈ 1.1 µM), the MIC ([13]; Table C, Methicillin Resistant) was 1.6 µg/mL (≈ 1.1 µM) and the MIC ([13]; Table E) was 3.1 µg/mL (≈ 2.14 µM). For the same compound, the MIC [14] was 3.1 µg/mL (≈ 2.14 µM), the MIC [15] was 1.6 µg/mL (≈ 1.1 µM) and the MIC [16] was 1.6 µg/mL (≈ 1.1 µM). The MIC [17] was 1.6 µg/mL (≈ 1.1 µM), the MIC [18] was 3.1 µg/mL (≈ 2.14 µM) and the MIC [19] was 32 µg/mL (≈ 22.1 µM). For the same compound, the MIC [20] was 32 µg/mL (≈ 22.1 µM), the MIC [21] was 32 µg/mL (≈ 22.1 µM) and the MIC ([22]; Fusobacterium nucleatum, ATCC25586) was 32 µg/mL (≈ 22.1 µM). It also gave an MIC ([22]; Table F, Fusobacterium nucleatum ATCC 25586) of 32 µg/mL (≈ 22.1 µM), an MIC ([23]; Table D, Anaerobes) of 4 µg/mL (≈ 2.76 µM) and an MIC ([23]; Table F) of 1 µg/mL (≈ 0.69 µM). For the same compound, the MIC [24] was 2 µg/mL (≈ 1.38 µM), the MIC ([25]; Table D, Anaerobes) was 2 µg/mL (≈ 1.38 µM) and the MIC ([25]; Table F) was 0.5 µg/mL (≈ 0.345 µM). It also gave an MIC [26] of 2 µg/mL (≈ 1.38 µM), an MIC [27] of 3.1 µg/mL (≈ 2.14 µM) and an MIC [28] of 0.5 µg/mL (≈ 0.345 µM). The ED50 ([29]; i.p. infection 46.8 LD50's Staph. aureus HH 127, s.c. 1 and 5 hours post infection) was 1.56 mg/kg, the ED50 ([29]; second test, similar protocol, s.c.) was 1.92 mg/kg and the “GLU (% Control)” value ([30]; 1.67 ppm) was 100 % Control. The “LAC (% Control)” value ([30]; 1.67 ppm) was 99 % Control, the “LYS (% Control)” value ([30]; 1.67 ppm) was 83 % Control and the “VFA (% Control)” value ([30]; 1.67 ppm) was 92 % Control. For the same compound, the “GLU (% Control)” value ([30]; 16.67 ppm) was 189 % Control, the “LAC (% Control)” value ([30]; 16.67 ppm) was 59 % Control and the “LYS (% Control)” value ([30]; 16.67 ppm) was 42 % Control. For the same compound, the “VFA (% Control)” value ([30]; 16.67 ppm) was 280 % Control, the “GLU (% Control)” value ([30]; 166.67 ppm) was 190 % Control and the “LAC (% Control)” value ([30]; 166.67 ppm) was 64 % Control. The “LYS (% Control)” value ([30]; 166.67 ppm) was 48 % Control and the “VFA (% Control)” value ([30]; 166.67 ppm) was 250 % Control.
